Source: US5591773A, “Inhibition of cataract formation, diseases resulting from oxidative stress, and HIV replication by caffeic acid esters” (priority 1994, dated 1997)
“And” between values parts separate entries of the source, which are not always exact repeats. Identical values can stand only once. “Also recorded” adds a separate entry of the source.

Tests used:
[1] = system: TPA-induced PMN infiltration in mouse skin (MPO); experiment: TPA-induced PMN infiltration (MPO) in dorsal skin of SENCAR mice; assay type: in vivo
Procedure: (§1) FIGS. 2A-2D. CAPE-mediated inhibition of TPA-induced oxidative processes in SENCAR mice. Mice were topically treated with 6.5 nmol CAPE 30 min prior to 6.5 nmol TPA, and this regimen was repeated 20 h later. Mice were sacrificed 1 h after the last treatment and the skin removed for determination of: (FIG. 2A) PMN infiltration (by measuring myeloperoxidase (MPO)); (FIG. 2B) H2 O2; (FIG. 2C) HMdUrd (HMdU); and (FIG. 2D) 8-OHdGua (8-OHdG), according to procedures described in the "Experimental Details" Section, infra. .quadrature., controls treated with acetone in place of CAPE and TPA; , treatment with acetone followed by TPA; .box-solid., treatment with CAPE followed by TPA. Results are expressed as mean ± SE (bars) from two experiments (2 mice/experiment) in the CAPE series. Data for acetone (ACT)- and TPA-treated mean values were collected from over 20 experiments.
A) Treatment of Animals and Assays. Female SENCAR (6-8 weeks old) and CD-1 mice (about 7 weeks old) were purchased from Biological Testing, National Cancer Institute (Frederick, Md.) and from Charles River Laboratory (Stone Ridge, N.Y.), respectively. The mice were acclimated for at least 1 week before use. They were subjected to a 12-h light/12-h dark cycle, housed at 20°±2° C. in a room with 10 cycles of air exchanges/h, given food and water ad libitum, and observed for any indication of ill health. Before topical application of any test agents, their backs were shaved and only those without hair growth after 48 h were used.
(§2) C) MPO, H2 O2, and Oxidized DNA Bases. SENCAR mice were pretreated with CAPE for 30 min; then 6.5 nmol (4 μg) TPA/mouse topically applied to the dorsal skin. After 20 h, the CAPE and TPA treatment (1x) was repeated (2x treatment). One h after the second treatment, the mice were sacrificed by cervical dislocation, and 12.5-mm punches were obtained to be used separately for MPO and H2 O2 determinations. The remainder of the treated mouse skin or the combined skins from two mice were used for separation of epidermal cells. This was done by heating the skin at 55° C. for 30 s followed by rapid immersion into an ice-cold water bath (45). After the epidermis was scraped off, the presence of oxidized DNA base derivatives was measured in the epidermal DNA. All of these end points were analyzed by published procedures and are briefly described below.
The assay for MPO was carried out according to the procedure of Metcalf et al. (53) with some modifications (20), and the results are expressed as units/cm^2, where a unit is defined as that degrading 1 μmol H2 O2 /min at 25° C. The presence of MPO in the mouse ears was measured in the homogenates. They were prepared by mincing the ears and homogenizing them in an ice-cold water bath with a polytron homogenizer, either twice for 20 s each or three times for 10 s each. Each homogenate was analyzed in duplicate and the results are expressed as mean MPO (units/mg protein) ±SE for each of the homogenates.
(§3) ^a Mice were treated as described in the legend to FIG. 2, except tha

[2] = system: TPA-induced H2O2 production in mouse skin; experiment: TPA-induced H2O2 production in skin of SENCAR mice; assay type: in vivo
Procedure: as §1, §2
Punches used for H2 O2 determination were immediately minced with scissors in cold 50 mM phosphate buffer, pH 7.0, containing 10 mM azide that is needed for inhibition of catalase. They were then homogenized, and centrifuged at 4° C. and the supernatants were stored at -80° C. for up to 1 week. H2 O2 was measured in freshly thawed supernatants using horseradish peroxidase-mediated oxidation of phenol red (21), and the results are expressed as nmol H2 O2 /cm^2 /10-min incubation. Although organic hydroperoxides also can be generated under these conditions (45), we find that H2 O2 constitutes a great majority of the oxidants generated because 60-85% of the oxidants produced are catalase inhibitable (21).
as §3

[3] = system: TPA-induced cataracts in eyes of rabbits; experiment: TPA-induced cataracts in rabbits in vivo; set-up: species or system white New Zealand rabbits; conditions: for cataract appearance, rabbit No. 5 (in words): conclusion of the experiment; for cataract appearance, other test animals (in words): rabbit, in vivo
Procedure: B) Test animals. Six healthy young (6-8 weeks old) white New Zealand rabbits of both sexes were used for the experiments. Each animal had normal eyes as confirmed by ocular examination by slit lamp.
C) Treatment of animals and monitoring the eye alterations. Cataracts were induced by the direct application of both TPA and CAPE into the eye chamber. On every third day, 0.05 ml of the TPA solution (200 μg/ml PBS) was injected into the anterior chamber of both eyes via a puncture at the corneo-scleral limbus with a fine 0.3×42 mm needle joined to a tuberculin syringe. The animals were all given local anesthesia with HUMACAIN eye drops (human, Godollo, Hungary) under sterile conditions for each application. One hour after TPA was injected, 0.05 ml of the CAPE solution (50 μg/ml) was administered into the anterior chamber of only the left eye, as above. The right eye of each animal received no further treatment. This procedure was repeated a total of 16 times. Periodic ocular examinations by slit lamp were performed after the 6th, 12th, and final drug applications. Subsequently, examinations were made on the 10th and 23rd days after the last drug treatment. After each ocular examination, the physical findings were recorded and photodocumentation of the eye changes were performed. The photographic documentary was executed in the following manner. Firstly, lenses were illuminated by a fiber optic light source from behind and photographs were taken from a distance of 5-6 cm. The diapositive black and white images on paper were transferred into an IBM personal computer (system 2, model 30) using a Sony-2-Cue CCD video camera that was equipped with Fujinon TV zoom objective (1:1.8) via a 17.5-105 signal-transfer system. Finally, with these computer image reconstructions, the areas of the lens opacifications were delineated and quantified using the Olympus image analyzer C-2 morphometry version 2.2 program.

O=C(/C=C/c1ccc(O)c(O)c1)OCCc1ccccc1 [CAPE, Caffeic acid phenethyl ester]
decrease of TPA-induced PMN infiltration ([1]; CAPE 6.5 nmol 30 min before each of two TPA 6.5 nmol applications, SENCAR mouse skin): ≈ 85% and 85%
MPO ([1]; CAPE 6.5 nmol pretreatment then TPA 6.5 nmol, 2x, (4 experiments), SE 0.3 on next line): 5.9 units/cm^2 skin
MPO ([1]; CAPE 650 nmol pretreatment then TPA 6.5 nmol, 2x, (4 experiments), SE 2.0 on next line): 10.8 units/cm^2 skin
TPA-mediated PMN infiltration and formation of HMdUrd and 8-OHdGua at high dose (in words) ([1]; CAPE 650 nmol/treatment, 2x, 20 h apart, vs 6.5 nmol): this reduction was not as effective as that caused by the lower (6.5 nmol) dose of CAPE
H2O2 ([2]; CAPE 6.5 nmol then TPA 6.5 nmol, 2x, (5 experiments), SE 2.2 on next line): 15.7 nmol/cm^2 skin
inhibition of TPA-induced H2O2 formation ([2]; CAPE 6.5 nmol, TPA 6.5 nmol, 2x, SENCAR mouse skin): 86%
H2O2 ([2]; CAPE 650 nmol then TPA 6.5 nmol, 2x, (5 experiments), SE 0.6 on next line): 11.6 nmol/cm^2 skin
H2O2 levels at high dose (in words) ([2]; CAPE 650 nmol/treatment vs 6.5 nmol): further decreased
area of TPA-induced cataracts larger in eye without CAPE than in CAPE-injected eye ([3]; 5 of 6 animals): 2.2-44.2 times
Size of cataract, CAPE (TPA + CAPE treated left eye) ([3]; CAPE 0.05 ml of 50 μg/ml 1 h after TPA, 16 times, one line per animal): 1.428 relative units and 6.739 relative units and 10.77 relative units and 28.722 relative units and 30.199 relative units and 43.184 relative units
cataract appearance, rabbit No. 5 (in words) [3]: a small capsular-subcapsular immature cataract is evident
Size of cataract, % of Control ([3]; left (TPA + CAPE) vs right (TPA) eye of the same animal, one line per animal): 2.25% and 45.83% and 10.26% and 25.73% and 30.22% and 151.11%
lens appearance, effect of CAPE (in words) ([3]; left eye, intracameral CAPE after TPA): significantly clearer; also recorded: produced a prophylactic effect on incipient cataracts; also recorded: significantly reduced the pathological effects of this phorbol ester
cataract appearance, other test animals (in words) [3]: generally smaller and more immature
animals with smaller cataract in CAPE-treated eye ([3]; rabbits, termination of the experiment): 5 out of the 6

CCCCCCCCCCCCCC(=O)O[C@@H]1[C@@H](C)[C@@]2(O)[C@@H](C=C(CO)C[C@]3(O)C(=O)C(C)=C[C@@H]23)[C@@H]2C(C)(C)[C@]12OC(C)=O [TPA, 12-O-tetradecanoylphorbol-13-acetate]
MPO ([1]; TPA alone, 6.5 nmol, mean ± SE (spread on next printed line: 7.6)): 23.7 units/cm^2 skin
H2O2 ([2]; TPA alone, 6.5 nmol, SE 0.7 on next line): 31.5 nmol/cm^2 skin
Size of cataract, Control (TPA-treated right eye) ([3]; TPA 0.05 ml of 200 μg/ml into anterior chamber every third day, 16 times, one line per animal): 63.139 relative units and 14.704 relative units and 104.97 relative units and 111.62 relative units and 99.923 relative units and 28.578 relative units
induction of cataracts in live rabbits (in words) ([3]; TPA injected into anterior chamber): Cataracts of various sizes and types were evident by ocular examination in both eyes starting after the 12th TPA injection; also recorded: potent inducer of cataracts in the eyes of live rabbits
cataract appearance, rabbit No. 5 (in words) [3]: a rather large arched subcortical condensed immature but developing cataract is evident
cataract appearance, other test animals (in words) [3]: larger, more mature cataracts that had spread deeply into the nuclear region
